# According to ChEMBL document CHEMBL1134169, “Serotonergic and dopaminergic activities of rigidified (R)-aporphine derivatives” (Bioorg Med Chem Lett, 2001):
# Experiments:
# [1] = target: 5-hydroxytryptamine receptor 7 (Rattus norvegicus, UniProt P32305); assay: In vitro binding affinity towards cloned rat 5-hydroxytryptamine 7 receptor using [3H]5-HT as radioligand
# [2] = target: T1, 5-hydroxytryptamine receptor 1A (Homo sapiens, UniProt P08908); assay: In vitro binding affinity towards cloned human 5-hydroxytryptamine 1A receptor expressed in Chinese hamster ovary (CHO) cells using [3H]8-OH-DPAT as radioligand; format: cell-based
# T1 sequence (P08908 whole entry): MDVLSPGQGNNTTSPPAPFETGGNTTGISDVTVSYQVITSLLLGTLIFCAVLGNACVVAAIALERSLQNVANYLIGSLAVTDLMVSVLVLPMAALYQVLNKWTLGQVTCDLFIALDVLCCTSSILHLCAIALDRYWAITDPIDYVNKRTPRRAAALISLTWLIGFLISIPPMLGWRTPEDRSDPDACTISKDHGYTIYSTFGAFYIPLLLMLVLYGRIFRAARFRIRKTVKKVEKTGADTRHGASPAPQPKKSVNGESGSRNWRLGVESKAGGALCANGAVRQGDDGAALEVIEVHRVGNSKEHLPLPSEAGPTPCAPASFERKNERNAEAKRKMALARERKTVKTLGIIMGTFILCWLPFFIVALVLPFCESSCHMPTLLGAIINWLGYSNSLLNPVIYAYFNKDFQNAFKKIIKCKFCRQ
# D(2) dopamine receptor = D(2) dopamine receptor (Homo sapiens, UniProt P14416); assay: In vitro binding affinity towards cloned human Dopamine receptor D2A using [3H]- Raclopride as radioligand.
# [3] = target: T2, 5-hydroxytryptamine receptor 1A (Rattus norvegicus, UniProt P19327); assay: In vitro binding affinity towards 5-hydroxytryptamine 1A receptor using [3H]8-OH-DPAT as radioligand in rat hippocampus membrane.; format: cell membranes
# T2 sequence (P19327 whole entry): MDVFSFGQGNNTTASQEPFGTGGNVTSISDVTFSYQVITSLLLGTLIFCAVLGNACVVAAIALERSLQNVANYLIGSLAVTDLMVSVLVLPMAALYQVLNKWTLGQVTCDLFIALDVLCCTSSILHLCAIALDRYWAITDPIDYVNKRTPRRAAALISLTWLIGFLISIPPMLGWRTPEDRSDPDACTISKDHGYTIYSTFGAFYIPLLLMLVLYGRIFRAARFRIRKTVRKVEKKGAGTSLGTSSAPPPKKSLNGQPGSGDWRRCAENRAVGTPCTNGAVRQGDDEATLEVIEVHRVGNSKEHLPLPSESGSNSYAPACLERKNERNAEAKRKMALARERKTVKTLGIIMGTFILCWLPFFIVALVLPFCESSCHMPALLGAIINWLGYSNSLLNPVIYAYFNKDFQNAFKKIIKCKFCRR
# 5-hydroxytryptamine receptor 7, sequence (P32305 whole entry): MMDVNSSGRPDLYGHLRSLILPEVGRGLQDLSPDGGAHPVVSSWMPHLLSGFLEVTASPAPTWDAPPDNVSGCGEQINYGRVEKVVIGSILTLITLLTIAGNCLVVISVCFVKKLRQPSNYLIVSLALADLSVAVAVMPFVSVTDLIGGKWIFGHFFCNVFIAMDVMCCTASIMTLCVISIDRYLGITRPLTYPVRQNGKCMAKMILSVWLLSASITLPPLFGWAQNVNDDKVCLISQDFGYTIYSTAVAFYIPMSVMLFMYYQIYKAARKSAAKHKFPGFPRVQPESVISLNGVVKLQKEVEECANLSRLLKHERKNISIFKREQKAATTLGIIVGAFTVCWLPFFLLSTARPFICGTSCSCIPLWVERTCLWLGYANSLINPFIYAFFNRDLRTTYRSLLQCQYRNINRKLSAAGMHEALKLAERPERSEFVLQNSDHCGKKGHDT
# D(2) dopamine receptor, sequence (P14416 whole entry): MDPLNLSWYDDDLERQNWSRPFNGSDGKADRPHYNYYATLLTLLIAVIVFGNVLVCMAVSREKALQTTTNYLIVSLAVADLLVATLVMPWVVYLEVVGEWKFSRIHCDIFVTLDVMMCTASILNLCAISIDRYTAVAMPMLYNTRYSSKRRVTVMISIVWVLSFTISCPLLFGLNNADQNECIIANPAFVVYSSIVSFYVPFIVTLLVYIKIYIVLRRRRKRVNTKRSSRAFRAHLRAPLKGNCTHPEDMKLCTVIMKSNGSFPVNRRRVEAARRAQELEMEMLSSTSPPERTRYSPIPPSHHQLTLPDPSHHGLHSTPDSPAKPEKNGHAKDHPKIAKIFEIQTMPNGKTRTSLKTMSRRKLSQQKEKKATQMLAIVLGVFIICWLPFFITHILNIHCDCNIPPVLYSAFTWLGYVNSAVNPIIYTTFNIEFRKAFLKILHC
SMILES,Ki [1] [nM],Ki [2] [nM],Ki (D(2) dopamine receptor) [nM],Ki [3] [nM]
CN1CCc2ccc3cnc4cccc5c4c3c2[C@H]1C5,27.2,62.3,1330,
CN1CCc2ccc3ncc4cccc5c4c3c2[C@H]1C5,81,33.9,327,
CN1CCc2ccc3c(=O)oc4cccc5c4c3c2[C@H]1C5,283,,541,1150
CN1CCc2ccc3oc(=O)c4cccc5c4c3c2[C@H]1C5,1480,,265,2030
CN1CCc2ccc3[nH]c(=O)c4cccc5c4c3c2[C@H]1C5,341,373,6110,
CN1CCc2ccc3c(=O)[nH]c4cccc5c4c3c2[C@H]1C5,54.5,178,54.6,
